# Ends that are not written are not given here.
# Key:
# human neutrophils [1] = assay: PMA-initiated NET formation by human neutrophils (fluorescence microscopy, PicoGreen free DNA); format: cell-based; details: 5 mM PA-dPEG24, PMA + hydrogen peroxide
# Method: (§1) Neutrophils from the blood of healthy volunteers were purified from heparinized blood by Hypaque-Ficoll step gradient centrifugation, dextran sedimentation, and hypotonic lysis, as previously described.
# (§2) A Neutrophil Extracellular Trap assay was performed in a microtiter plate as follows. The formation of NETs was induced by incubating 2.0×10^5 neutrophils in a 96 well tissue culture plates with RPMI media alone, or adding 0.05% of H2O2, or 12 nM PMA, or 8 μg/ml MPO, or PA-dPEG24 at various concentrations. For immune complex sera induced NET formation, activated sera was made by adding 5 μl of ovalbumin-anti-ovalbumin immune complex to 5% NHS in 0.3 ml of GVBS^++. This combination was allowed to incubate for 30 minutes at 37° C., and then 0.05 ml was added to the neutrophils in RPMI. Cells were then incubated for 1.5 hours at 37° C. in 5% CO2 incubator.
# NET formation was quantitatively assayed as follows. Free DNA was measured by PicoGreen in the supernatant recovered from the NET microtiter plate well assay. Five hundred units of […] (Fisher) were added to each well to allow for digestion of released extracellular DNA for 10 minutes in 37° C. incubator. […] The fluorescence was then quantified on a BioTek microplate reader at Excitation 485 nm/Emission 528 nm.
# NET formation was assayed by fluorescence microscopy. […]
# [2] = tested on: complement activation in normal human serum (NHS); assay: C1-antiC1q immune complex-initiated complement activation in normal human serum (C5a, iC3b, SC5b-9 ELISA); format: biochemical
# Method: Immune complex activation of NHS was performed as follows. NHS was stimulated with three different types of immune complexes (IC) to induce complement activation. Heat-aggregated IgG was generated by incubating intravenous immune globulin at 50 mg/ml at 63° C. for 30 min [26]. Ovalbumin-antiovalbumin immune complexes were made by incubating 0.01 ml anti-ovalbumin antibody with an equal volume of ovalbumin, at 0.25 mg/nil, at 37° C. for 30 minutes and then storing at 4° C. overnight. C1 immune complexes were formed by incubating 0.02 ml anti-C1q goat sera with 5 μl of C1, at 200 μg/ml, at 30° C. for 30 minutes and then placing in an ice water bath. For C5a and C5b-9 assays, activation of NHS was performed by pre-incubating 5% NHS with titrating concentrations of PA-dPEG24 in 0.3 ml of GVBS^++ buffer for 30 minutes at room temperature. Then […] of either heat-aggregated IVIg, or ovalbumin IC, or 5 μI of C1-antiC1q IC was added to the mix for 30 min. at 37° C. This reaction was stopped with the addition of an equal volume of GVBS^−−. For iC3b detection, 1% NHS was used and the rest of the protocol remained the same.
# ELISA was performed as follows. Samples were assayed using C5a, iC3b, and SC5b-9 ELISAs. A C5a ELISA kit (R&D Systems) was used per the manufacturer's instructions. ELISAs for iC3b and SC5b-9 were performed as previously described. In iC3b ELISA, a goat anti-human C3 antibody (Complement Technology, Tyler TX) was used in for capture, a mouse anti-human iC3b antibody (Quidel, San Diego CA) for probing, and a goat anti-mouse HRP antibody for detection. In SC5b-9 ELISA, a rabbit anti-human SC5b-9 antibody (Complement Technology) was used for capture, a mouse anti-human SC5b-9 monoclonal antibody (Quidel) for probing, and a chicken anti-mouse HRP antibody for detection. Colorimetric detection was performed with TMB, stopped with H2SO4 and read on a BioTek Synergy HT plate reader at 450 nm.
# Due to the importance of anti-C1q antibodies in a subset of patients with SLE, immune complexes with human C1 and anti-C1q antibodies (goat) were generated. […]
# human neutrophils [3] = assay: MPO-initiated NET formation by human neutrophils (fluorescence microscopy, PicoGreen free DNA); format: cell-based; details: for reduction in free DNA (PicoGreen): vs MPO with no inhibitor
# Method: as §1, §2
# NET formation was quantitatively assayed as follows. Free DNA was measured by PicoGreen in the supernatant recovered from the NET microtiter plate well assay. Five hundred units of […] (Fisher) were added to each well to allow for digestion of released extracellular DNA for 10 minutes in 37° C. incubator. The preparation was then aliquoted into an adjacent well and mixed 1:1 with prepared PICO green reagent (Fisher). The fluorescence was then quantified on a BioTek microplate reader at Excitation 485 nm/Emission 528 nm.
# NET formation was assayed by fluorescence microscopy. Purified human neutrophils were assayed on a glass slide as follows. Cells were combined with RPMI media and the indicated stimuli as mentioned above in a tube and then aliquoted onto a glass slide circled with a hydrophobic slide marker. The slides were incubated for 1.5 hours at 37° C. in a 5% CO2 incubator at 37 degrees for 1.5 hours. Slides were fixed overnight with 4% paraformaldehyde at 4° C.
# For all staining, the following conditions were used. Slides were washed in PBS and incubated in blocking solution (2% normal goat serum+2% bovine serum albumin in PBS) for 1 hour at room temperature. Then the slides were incubated with primary antibody at 1:300 in 2% BSA in PBS for 1 hour at room temperature. Slides were washed in PBS 3 times and incubated in fluorescent-labeled secondary antibody at 1:1000 or DAPI (Southern Biotech) at 0.25 pg/ml final in 2% BSA in PBS for 1 hour at room temperature. Slides were then washed 3 times in PBS and were imaged. Cells were visualized using a DP70 Digital Camera (Olympus Center, Valley Forge, PA), mounted on a BX50, Olympus microscope. Staining antibody pairs used were rabbit anti-MPO (Thermo Scientific) and rabbit anti-Histone H3 (Abcam) with the secondary goat anti-rabbit Alexa Fluor 488 (Novus Biologicals). […]
substance,measurement,setting,value
"IALILEPICCQERAA-dPEG24 (cysteine pairing not given here) [PA-dPEG24, 15-amino acid PEGylated peptide, 24 PEG moieties at the C-terminus]",NETs identified by fluorescence microscopy,human neutrophils [1],did not generate NETs
same,inhibition of free DNA elaboration (PicoGreen),"human neutrophils [1]; vs no inhibitor, P=0.01",2.6 fold
same,C1-antiC1q generation of iC3b,"[2]; 2 mM PA-dPEG24, P<0.02",inhibited by 2 mM PA-dPEG24 (P<0.02) to a level similar to NHS baseline
same,PA-dPEG24 concentration inhibiting C1-antiC1q generation of SC5b-9,[2]; P<0.03,≥ 0.13 mM
same,C1-antiC1q generation of C5a in NHS,"[2]; at each concentration, P<0.03",dose-dependently inhibited
same,reduction in free DNA (PicoGreen),"human neutrophils [3]; 1.1 mM PA-dPEG24, P=0.02",30%
same,reduction in free DNA (PicoGreen),"human neutrophils [3]; 4.5 mM PA-dPEG24, P=0.001",3.7 fold
same,NET formation by fluorescence microscopy,"human neutrophils [3]; 5 mM PA-dPEG24, MPO + hydrogen peroxide",blocked
same,"appearance of neutrophils incubated with PA-dPEG24 alone, fluorescence microscopy","human neutrophils [3]; PA-dPEG24 only, no stimulus",appeared normal

# From patent publication US12257290B2, “PIC1 inhibition of myeloperoxidase oxidative activity in an animal model” (priority 2018, dated 2025)
